Measured values reported in ChEMBL document CHEMBL1201862, “PubChem BioAssay data set” (2004).
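Following 48 hours of exposure in 96-well plates, responses at five concentrations were used to interpolate endpoints linearly. The concentration for 50% growth inhibition is given as GI50.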 Calls of active or inactive are those of the source. Cut-off read from the data, not from the text of the source: active = GI50 up to about 1.1 µM and inactive = higher.

Legend:
Assay in all cases: NCI-60 cell line screen, 48 h
[1] = test system: MCF7
[2] = test system: IGROV-1
[3] = test system: MOLT-4
[4] = test system: SN12C
[5] = test system: NCI-H522
[6] = test system: HCC 2998
[7] = test system: EKVX
[8] = test system: SNB-19
[9] = test system: NCI/ADR-RES
[10] = test system: UACC-257
[11] = test system: T47D
[12] = test system: U-251
[13] = test system: HCT-116
[14] = test system: KM12
[15] = test system: UO-31
[16] = test system: HCT-15
[17] = test system: OVCAR-5
[18] = test system: SK-MEL-5
[19] = test system: SR
[20] = test system: PC-3
[21] = test system: MDA-MB-435
[22] = test system: MDA-N
[23] = test system: K562
[24] = test system: SK-OV-3
[25] = test system: TK-10
[26] = test system: SF-539
[27] = test system: SF-295
[28] = test system: SNB-75
[29] = test system: OVCAR-8
[30] = test system: RPMI-8226
[31] = test system: SF-268
[32] = test system: M14
[33] = test system: HL-60
[34] = test system: 786-0
[35] = test system: COLO 205
[36] = test system: SK-MEL-28
[37] = test system: SW-620
[38] = test system: HOP-62
[39] = test system: ACHN
[40] = test system: MDA-MB-231
[41] = test system: HT-29
[42] = test system: Malme-3M
[43] = test system: OVCAR-3
[44] = test system: A498
[45] = test system: OVCAR-4
[46] = test system: NCI-H23
[47] = test system: HOP-92
[48] = test system: RXF 393
[49] = test system: DU-145
[50] = test system: CAKI-1
[51] = test system: SK-MEL-2
[52] = test system: A549
[53] = test system: UACC-62

For `COc1ccc2c3c([nH]c2c1)-c1nc2ccccc2c(=O)n1CC3`, the GI50 [1] was > 25 µM (inactive), the GI50 [2] was > 25 µM (inactive) and the GI50 [3] was > 25 µM (inactive). For the same compound, the GI50 [4] was > 25 µM (inactive), the GI50 [5] was > 25 µM (inactive) and the GI50 [6] was > 25 µM (inactive). For the same compound, the GI50 [7] was > 25 µM (inactive), the GI50 [8] was > 25 µM (inactive) and the GI50 [9] was > 25 µM (inactive). For the same compound, the GI50 [10] was > 25 µM (inactive), the GI50 [11] was > 25 µM (inactive) and the GI50 [12] was > 25 µM (inactive). The GI50 [13] was > 25 µM (inactive), the GI50 [14] was > 25 µM (inactive) and the GI50 [15] was > 25 µM (inactive). For the same compound, the GI50 [16] was over 25 µM, the GI50 [17] was > 25 µM (inactive) and the GI50 [18] was > 25 µM (inactive). The GI50 [19] was > 25 µM (inactive), the GI50 [20] was > 25 µM (inactive) and the GI50 [21] was > 25 µM (inactive). The GI50 [22] was > 25 µM (inactive), the GI50 [23] was > 25 µM (inactive) and the GI50 [24] was > 25 µM (inactive). For the same compound, the GI50 [25] was > 25 µM (inactive), the GI50 [26] was 14.9 µM (inactive) and the GI50 [27] was > 25 µM (inactive). For the same compound, the GI50 [28] was 13.1 µM (inactive), the GI50 [29] was > 25 µM (inactive) and the GI50 [30] was > 25 µM (inactive). The GI50 [31] was 21.5 µM (inactive), the GI50 [32] was > 25 µM (inactive) and the GI50 [33] was > 25 µM (inactive). For the same compound, the GI50 [34] was 0.317 µM (active), the GI50 [35] was > 25 µM (inactive) and the GI50 [36] was > 25 µM (inactive). For the same compound, the GI50 [37] was > 25 µM (inactive), the GI50 [38] was > 25 µM (inactive) and the GI50 [39] was > 25 µM (inactive). The GI50 [40] was > 25 µM (inactive).
For `Cc1cn(C2CC(N(O)C(N)=O)C(CO)O2)c(=O)[nH]c1=O` (stereo unspecified), the GI50 [41] was > 100 µM (inactive), the GI50 [1] was > 100 µM (inactive) and the GI50 [42] was > 100 µM (inactive). For the same compound, the GI50 [43] was > 100 µM (inactive), the GI50 [44] was > 100 µM (inactive) and the GI50 [3] was > 100 µM (inactive). For the same compound, the GI50 [4] was > 100 µM (inactive), the GI50 [5] was > 100 µM (inactive) and the GI50 [45] was > 100 µM (inactive). For the same compound, the GI50 [46] was > 100 µM (inactive), the GI50 [8] was > 100 µM (inactive) and the GI50 [9] was > 100 µM (inactive). The GI50 [11] was > 100 µM (inactive), the GI50 [12] was > 100 µM (inactive) and the GI50 [47] was > 100 µM (inactive). For the same compound, the GI50 [13] was > 100 µM (inactive), the GI50 [14] was > 100 µM (inactive) and the GI50 [15] was > 100 µM (inactive). For the same compound, the GI50 [16] was over 100 µM, the GI50 [17] was > 100 µM (inactive) and the GI50 [18] was > 100 µM (inactive). The GI50 [48] was > 100 µM (inactive), the GI50 [49] was > 100 µM (inactive) and the GI50 [20] was > 100 µM (inactive). For the same compound, the GI50 [21] was > 100 µM (inactive), the GI50 [22] was > 100 µM (inactive) and the GI50 [23] was > 100 µM (inactive). The GI50 [24] was > 100 µM (inactive), the GI50 [50] was > 100 µM (inactive) and the GI50 [25] was > 100 µM (inactive). For the same compound, the GI50 [26] was > 100 µM (inactive), the GI50 [27] was > 100 µM (inactive) and the GI50 [29] was > 100 µM (inactive). For the same compound, the GI50 [30] was > 100 µM (inactive), the GI50 [31] was > 100 µM (inactive) and the GI50 [51] was > 100 µM (inactive). For the same compound, the GI50 [32] was > 100 µM (inactive), the GI50 [34] was > 100 µM (inactive) and the GI50 [35] was > 100 µM (inactive). For the same compound, the GI50 [36] was > 100 µM (inactive), the GI50 [37] was > 100 µM (inactive) and the GI50 [38] was > 100 µM (inactive). The GI50 [39] was > 100 µM (inactive), the GI50 [52] was > 100 µM (inactive) and the GI50 [40] was > 100 µM (inactive). For the same compound, the GI50 [53] was > 100 µM (inactive).
